The structures appear in SMILES notation. Where two headings read alike, the source gives them in different places. Marks after values point to notes of the source that are not given here. Some results are limits rather than exact numbers.

In experiment [1] the test system is P. falciparum strain D6 (sensitive to chloroquine and pyrimethamine). The experiment in a line: [3H]-hypoxanthine growth inhibition assay, P. falciparum D6. The experiment is classed as cell-based. As to conditions: Plasmodium falciparum. On the procedure:
(§1) The potential for antimalarial activity against Plasmodium falciparum was determined by measuring the incorporation of tritiated hypoxanthine into parasitized red blood cells.
(§2) Stock solutions of the test compounds and the reference drug chloroquine (CQ) (Sigma Chemicals C-6628, Lot #059H0919) were prepared in silanized glass vials with AquaSil™ (Pierce, USA) to minimize absorption of the compounds to glassware. All test compounds were dissolved in DMSO (Sigma Cat No. # D8418) to 1 mM concentration, whereas CQ was dissolved in 50% methanol at a concentration of 1.6 mg/ml (base). Stock solutions were stored at −20° C.
(§3) The P. falciparum laboratory adapted strains utilized in this project (Table 1) were in vitro cultured and routinely maintained in RPMI-1640-LPLF complete medium, which contained low concentrations of para-amino benzoic acid (0.0005 mg/L) and folic acid (0.01 mg/L).
(§4) The low concentration of folic acid in RPMI-1640-LPLF prevents inhibition of the compound if its activity targets the parasite's folate metabolic pathway. Parasites were cultured in human red blood cells (RBCs) in vitro at 37° C. in special gas mixture (5% O2, 5% CO2 and 90% N2) as described Trager and Jensen (1979 Science 193:673-675).
(§5) Base cultivation medium consisted of 10.4 g/L RPMI-1640-LPLF powder (Gibco BRL), 5.97 g/L HEPES buffer (MP Biomedicals, USA), 2.0 g/L D-glucose (BDH chemicals, Australia), 0.05 g/L hypoxanthine (Sigma, USA) and 40 mg/L gentamycin (Pfizer, Australia). The pH of the medium was adjusted to 6.9 and the solution was filtered using 0.2 μm pore size (AcroCap, Gelman Science, USA). […] For [^3H]-hypoxanthine inhibition growth assay, RPMI-1640-LPLF complete medium which lacked [^3H]-hypoxanthine ([^3H]-RPMI-1640-LPLF) was used to prevent uptake of hypoxanthine by parasites, as radioactive hypoxanthine uptake is measured as a surrogate marker of growth. […]
(§6) Red blood cells (RBC) were required for P. falciparum parasites to proliferate in vitro. […] Following the final wash, the haematocrit was measured as the percent of RBC to total culture volume. […]

Experiment [2] concerns P. falciparum strain W2 (resistant to chloroquine and pyrimethamine). Put plainly: [3H]-hypoxanthine growth inhibition assay, P. falciparum W2. It counts as cell-based. As to conditions: Plasmodium falciparum. Here is the method: as §1, §2, §3, §4, §5, §6
Experiment [3] has as its system Plasmodium berghei (KBG-173 strain). The experiment in a line: Plasmodium berghei assay in vivo (modified Thompson Test), survival of infected mice. As to conditions: for Average Days Survival: 31 day experiment. On the set-up: species or system Charles River CD-1 mice. Here is the method: In vivo antimalarial activity was tested in male or female Charles River CD-1 mice that were 4-5 weeks old and weighed 20-25 g They were housed in groups of 3 or 4 in standard plastic cages with wire tops, Bed-o-cob® bedding, 12 hr/day of light, and maintained at 75° F. They were fed a standard Ralston Purina mouse chow and the cages and bottles were changed twice a week. Test compounds were ground in a mortar and pestle and diluted with enough vehicle to give a volume of 10 mL/kg of mouse weight. The oral doses were prepared in 0.5% hydroxyethylcellulose (Union Carbide Corp. WP 4400)/0.1% Tween-80 (Fisher Scientific T164-500). The amount of drug was calculated on the free base weight. The mice were infected intraperitoneally on day 0 with 5×10^4 erythrocytes parasitized with Plasmodium berghei (KBG-173 strain) from a donor mouse having a parasitemia between 5-10%. On days 3, 4 and 5 the test compounds were administered bid, spaced 6 hr apart, by oral gavage to the mice. Activity was measured by survival, with full activity defined as all animals living at day 31. Partial activity is defined as days of increased survival versus the infected non-treated controls. This in vivo model is a modification of the Thompson Test. For further description see Ager, A. L, Jr. Rodent Malaria Models. In Handbook of Experimental Pharmacology: Antimalarial Drugs. 1. 68/1; Peters, W., Richards, W. H. G., Eds.: Springer-Verlag: Berlin, 1984, pp. 231-33.

Setting [4] is: P. falciparum D6, [3H]-hypoxanthine incorporation, read-out: D6 IC50.
[5] abbreviates: P. falciparum W2, [3H]-hypoxanthine incorporation, read-out: W2 IC50.
The mark [6] stands for this setting: 4 mg/kg/day, oral bid on days 3, 4 and 5.
The mark [7] stands for this setting: 16 mg/kg/day, oral bid on days 3, 4 and 5.
Where [8] appears, read: Plasmodium berghei, 744 h, 16 mg/kg/day, oral bid on days 3, 4 and 5, read-out: Number of mice alive at day 31 (converted).
[9] abbreviates: 64 mg/kg/day, oral bid on days 3, 4 and 5.
Where [10] appears, read: Plasmodium berghei, po, 744 h, read-out: Number of mice alive at day 31.

In the case of `CC(C)(C)NCc1cc(C(C)(C)C)cc(-c2ccc(Cl)c(C(F)(F)F)c2)c1O.Cl` [Example 23, 5-(tert-Butyl)-3-((tert-butylamino)methyl)-4′-chloro-3′-(trifluoromethyl)-[1,1′-biphenyl]-2-ol hydrochloride], the values for the IC50 in experiment [1] (setting [4]) and in experiment [2] (setting [5]) were 21 nM and 9 nM, respectively. Also, the “Average Days Survival” value is greater than 15.3 days in experiment [3] (1 mg/kg/day, oral bid on days 3, 4 and 5); greater than 7 days in experiment [3] (2 mg/kg/day, oral bid on days 3, 4 and 5); >31* Days in experiment [3] (setting [6]); >31* Days in experiment [3] (8 mg/kg/day, oral bid on days 3, 4 and 5); >31* Days in experiment [3] (setting [7]); >31* Days in experiment [3] (32 mg/kg/day, oral bid on days 3, 4 and 5). Also, the responders at 1 mg/kg in experiment [3] (Plasmodium berghei, 744 h, 1 mg/kg/day, oral bid on days 3, 4 and 5, read-out: Number of mice alive at day 31 (converted)) is 42.9%. The responders at 2 mg/kg in experiment [3] (Plasmodium berghei, 744 h, 2 mg/kg/day, oral bid on days 3, 4 and 5, read-out: Number of mice alive at day 31 (converted)) is 85.7%. Also, the responders at 4 mg/kg in experiment [3] (Plasmodium berghei, 744 h, 4 mg/kg/day, oral bid on days 3, 4 and 5, read-out: Number of mice alive at day 31 (converted)) was 100%. Also, in experiment [3] (Plasmodium berghei, 744 h, 8 mg/kg/day, oral bid on days 3, 4 and 5, read-out: Number of mice alive at day 31 (converted)), the responders at 8 mg/kg was 100%. The responders at 16 mg/kg in experiment [3] (setting [8]) was 100%. In experiment [3] (Plasmodium berghei, 744 h, 32 mg/kg/day, oral bid on days 3, 4 and 5, read-out: Number of mice alive at day 31 (converted)), the responders at 32 mg/kg is 100%.

`CC(C)(C)NCc1cc(-c2ccc(Cl)cc2)nc(-c2ccc(Cl)cc2)c1O.Cl` [Example 56, 4-((tert-Butylamino)methyl)-2,6-bis(4-chlorophenyl)pyridin-3-ol hydrochloride]: the IC50 in experiment [1] (setting [4]) is 32 nM; in experiment [2] (setting [5]), 12 nM. Also, the “Average Days Survival” value in experiment [3] (setting [7]) is greater than 19.3 days; in experiment [3] (setting [9]) it was greater than 20 days. The responders at 16 mg/kg in experiment [3] (setting [8]) was 71.4%. In addition, the responders at 64 mg/kg in experiment [3] (Plasmodium berghei, 744 h, 64 mg/kg/day, oral bid on days 3, 4 and 5, read-out: Number of mice alive at day 31 (converted)) is 85.7%.

Consider `CCN(CC)CCCC(C)Nc1ccnc2cc(Cl)ccc12` (stereo not drawn) [Chloroquine, chloroquine, reference compound], for which the IC50 in experiment [1] (D6, read-out: D6 IC50) came out at 12 nM; in experiment [2] (W2, read-out: W2 IC50), 133 nM. Also, the “Average Days Survival” value in experiment [3] (setting [6]) is 10.3 days; in experiment [3] (setting [7]), greater than 18.8 days; in experiment [3] (setting [9]), greater than 18.6 days; in experiment [3] (128 mg/kg/day, oral bid on days 3, 4 and 5), greater than 21.3 days. The responders at 4 mg/kg in experiment [3] (setting [10]) came to 0%. In addition, the responders at 16 mg/kg in experiment [3] (setting [10]) is 14.3%. Also, the responders at 64 mg/kg in experiment [3] (setting [10]) is 28.6%. In addition, the responders at 128 mg/kg in experiment [3] (setting [10]) was 57.1%.

As a reminder, the IC50 is the concentration needed to halve the response being measured.
